Experiments:
Test in all cases: relative viability (nuclei count vs DMSO), 5 days (fraction); higher = more cells survive
NCI-H2347 = test system: NCI-H2347
Summary of the method: (§1)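 Cells from lung cancer lines were seeded into 1536-well plates and, one day later, dosed by pin tool. Treatments were either a single drug or a fixed dose of an anchor drug with five library-drug doses (not always all listed) in √10 steps. After 5 days, nuclei were stained in a one-step fixation (final 0.05% Triton X-100, 1% formaldehyde, 1 ug/ml Hoechst) and counted on 4× images, and relative viability is the treated-to-vehicle nuclei ratio, as the median of duplicate plates.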

EMC-BAC-2 = test system: EMC-BAC-2
Summary of the method: as §1

NCI-H2087 = test system: NCI-H2087
Summary of the method: as §1

NCI-H650 = test system: NCI-H650
Summary of the method: as §1

HARA = test system: HARA
Summary of the method: as §1

NCI-H23 = test system: NCI-H23
Summary of the method: as §1

HCC-44 = test system: HCC-44
Summary of the method: as §1

NCI-H596 = test system: NCI-H596
Summary of the method: as §1

NCI-H2126 = test system: NCI-H2126
Summary of the method: as §1

LOU-NH91 = test system: LOU-NH91
Summary of the method: as §1

NCI-H1993 = test system: NCI-H1993
Summary of the method: as §1

LCLC-103H = test system: LCLC-103H
Summary of the method: as §1

NCI-H647 = test system: NCI-H647
Summary of the method: as §1

NCI-H3122 = test system: NCI-H3122
Summary of the method: as §1

NCI-H441 = test system: NCI-H441
Summary of the method: as §1

NCI-H838 = test system: NCI-H838
Summary of the method: as §1

BEN = test system: BEN
Summary of the method: as §1

NCI-H727 = test system: NCI-H727
Summary of the method: as §1

NCI-H2023 = test system: NCI-H2023
Summary of the method: as §1

201T = test system: 201T
Summary of the method: as §1

## O=c1cc(N2CCOCC2)oc2c(-c3cccc4c3sc3ccccc34)cccc12 + CC(C)C[C@H](NC(=O)[C@H](Cc1ccccc1)NC(=O)c1cnccn1)B(O)O [Bortezomib] (partner 0.002 µM)
NCI-H2347; first compound 0.01 µM
  relative viability: 1.15
NCI-H2347; first compound 0.03162 µM
  relative viability: 1.12
NCI-H2347; first compound 0.1 µM
  relative viability: 0.838
NCI-H2347; first compound 0.3162 µM
  relative viability: 0.835
NCI-H2347; first compound 1 µM
  relative viability: 0.839
EMC-BAC-2; first compound 0.01 µM
  relative viability: 1.06
EMC-BAC-2; first compound 0.03162 µM
  relative viability: 1.09
EMC-BAC-2; first compound 0.1 µM
  relative viability: 1.15
EMC-BAC-2; first compound 0.3162 µM
  relative viability: 1.11
EMC-BAC-2; first compound 1 µM
  relative viability: 1.02
NCI-H2087; first compound 0.01 µM
  relative viability: 0.777
NCI-H2087; first compound 0.03162 µM
  relative viability: 0.766
NCI-H2087; first compound 0.1 µM
  relative viability: 0.855
NCI-H2087; first compound 0.3162 µM
  relative viability: 0.953
NCI-H2087; first compound 1 µM
  relative viability: 1.06
NCI-H650; first compound 0.01 µM
  relative viability: 0.845
NCI-H650; first compound 0.03162 µM
  relative viability: 0.837
NCI-H650; first compound 0.3162 µM
  relative viability: 1.12
NCI-H650; first compound 1 µM
  relative viability: 0.632
HARA; first compound 0.01 µM
  relative viability: 1.16
HARA; first compound 0.03162 µM
  relative viability: 1.17
HARA; first compound 0.1 µM
  relative viability: 1.19
HARA; first compound 0.3162 µM
  relative viability: 1.1
HARA; first compound 1 µM
  relative viability: 1.1
NCI-H23; first compound 0.01 µM
  relative viability: 1.13
NCI-H23; first compound 0.03162 µM
  relative viability: 1.08
NCI-H23; first compound 0.3162 µM
  relative viability: 1.01
NCI-H23; first compound 1 µM
  relative viability: 0.946
HCC-44; first compound 0.01 µM
  relative viability: 0.889
HCC-44; first compound 0.03162 µM
  relative viability: 0.875
HCC-44; first compound 0.1 µM
  relative viability: 0.906
HCC-44; first compound 0.3162 µM
  relative viability: 0.881
HCC-44; first compound 1 µM
  relative viability: 0.896
NCI-H596; first compound 0.01 µM
  relative viability: 0.897
NCI-H596; first compound 0.03162 µM
  relative viability: 1.07
NCI-H596; first compound 0.1 µM
  relative viability: 1.37
NCI-H596; first compound 0.3162 µM
  relative viability: 1.06
NCI-H596; first compound 1 µM
  relative viability: 1.08
NCI-H2126; first compound 0.01 µM
  relative viability: 1.14
NCI-H2126; first compound 0.03162 µM
  relative viability: 1.11
NCI-H2126; first compound 0.1 µM
  relative viability: 1.13
NCI-H2126; first compound 0.3162 µM
  relative viability: 1.06
NCI-H2126; first compound 1 µM
  relative viability: 1.14
LOU-NH91; first compound 0.01 µM
  relative viability: 0.448
LOU-NH91; first compound 0.03162 µM
  relative viability: 0.487
LOU-NH91; first compound 0.1 µM
  relative viability: 0.538
LOU-NH91; first compound 0.3162 µM
  relative viability: 0.548
LOU-NH91; first compound 1 µM
  relative viability: 0.457
NCI-H1993; first compound 0.01 µM
  relative viability: 1
NCI-H1993; first compound 0.03162 µM
  relative viability: 1.09
NCI-H1993; first compound 0.1 µM
  relative viability: 1.33
NCI-H1993; first compound 0.3162 µM
  relative viability: 1.11
NCI-H1993; first compound 1 µM
  relative viability: 1.07
LCLC-103H; first compound 0.01 µM
  relative viability: 1.16
LCLC-103H; first compound 0.03162 µM
  relative viability: 1.04
LCLC-103H; first compound 0.1 µM
  relative viability: 0.954
LCLC-103H; first compound 0.3162 µM
  relative viability: 1.04
LCLC-103H; first compound 1 µM
  relative viability: 0.877
NCI-H647; first compound 0.01 µM
  relative viability: 1.01
NCI-H647; first compound 0.03162 µM
  relative viability: 1.1
NCI-H647; first compound 0.1 µM
  relative viability: 0.98
NCI-H647; first compound 0.3162 µM
  relative viability: 1.02
NCI-H647; first compound 1 µM
  relative viability: 0.924
NCI-H3122; first compound 0.01 µM
  relative viability: 1.02
NCI-H3122; first compound 0.03162 µM
  relative viability: 0.907
NCI-H3122; first compound 0.1 µM
  relative viability: 1.02
NCI-H3122; first compound 0.3162 µM
  relative viability: 0.947
NCI-H3122; first compound 1 µM
  relative viability: 1.02
NCI-H441; first compound 0.01 µM
  relative viability: 0.443
NCI-H441; first compound 0.03162 µM
  relative viability: 0.565
NCI-H441; first compound 0.1 µM
  relative viability: 0.487
NCI-H441; first compound 0.3162 µM
  relative viability: 0.301
NCI-H441; first compound 1 µM
  relative viability: 0.684
NCI-H838; first compound 0.01 µM
  relative viability: 0.779
NCI-H838; first compound 0.03162 µM
  relative viability: 0.673
NCI-H838; first compound 0.1 µM
  relative viability: 0.805
NCI-H838; first compound 0.3162 µM
  relative viability: 0.813
NCI-H838; first compound 1 µM
  relative viability: 0.908
BEN; first compound 0.01 µM
  relative viability: 0.867
BEN; first compound 0.03162 µM
  relative viability: 0.949
BEN; first compound 0.1 µM
  relative viability: 0.673
BEN; first compound 0.3162 µM
  relative viability: 0.793
BEN; first compound 1 µM
  relative viability: 0.712
NCI-H727; first compound 0.01 µM
  relative viability: 0.961
NCI-H727; first compound 0.03162 µM
  relative viability: 0.937
NCI-H727; first compound 0.1 µM
  relative viability: 0.764
NCI-H727; first compound 0.3162 µM
  relative viability: 0.84
NCI-H727; first compound 1 µM
  relative viability: 0.79
NCI-H2023; first compound 0.01 µM
  relative viability: 1.04
NCI-H2023; first compound 0.03162 µM
  relative viability: 1.02
NCI-H2023; first compound 0.1 µM
  relative viability: 1.05
NCI-H2023; first compound 0.3162 µM
  relative viability: 0.936
NCI-H2023; first compound 1 µM
  relative viability: 0.907
201T; first compound 0.01 µM
  relative viability: 1.07
201T; first compound 0.03162 µM
  relative viability: 1.09
201T; first compound 0.1 µM
  relative viability: 0.957
201T; first compound 0.3162 µM
  relative viability: 1.08
201T; first compound 1 µM
  relative viability: 1.1

— the supplement of paper PMC10307832
